Key:
[1] = Biodistribution of In-111-DTPA and large liposomes; settings: in vivo
Source text: FIGS. 10A-10C depict the biodistribution of ^111In-DTPA only (FIG. 10A) zwitterionic liposomes (FIG. 10B), ^111In-DTPA cationic liposomes (FIG. 10C).
Over time the percentage per gram of tissue tested of the original amount of In-111 found in the spleen and liver increases while that in blood and other tissues such as heart, lungs, stomach, intestines, kidneys, bone, and muscle remain constant or decrease. […] Preinjection with empty large liposomes to saturate the reticuloendothelial organs will reduce non-specific radionuclide uptake by the spleen and liver.

[2] = test system: myeloid leukemia; settings: first injection of an alpha-particle emitter to humans; cited from earlier work

Molecule | tissue localization of In-111 [1] | trial outcome [2]
O=C([O-])CN(CCN(CC(=O)[O-])CC(=O)[O-])CCN(CC(=O)[O-])CC(=O)[O-].[111In+3].[H+].[H+] [DTPA-chelated In-111] | localize to the kidneys more than to other tissues | 
HuM195: 213Bi conjugated to the anti-CD33 antibody HuM195 |  | feasibility and anti-cancer activity with minimal toxicity

Reference: US20040166060A1, “Liposomal encapsulation of alpha particle emittors and uses thereof” (Sloan Kettering Institute for Cancer Research, priority 2000, published 2004)
